This passage reports relative viability results from the supplement of paper PMC10307832.

Compound in assay [1]: COc1cc(Nc2ncc(F)c(Nc3ccc4c(n3)NC(=O)C(C)(C)O4)n2)cc(OC)c1OC [R406] + CC1(C)CCC(c2ccc(Cl)cc2)=C(CN2CCN(c3ccc(C(=O)NS(=O)(=O)c4ccc(N[C@H](CCN5CCOCC5)CSc5ccccc5)c(S(=O)(=O)C(F)(F)F)c4)cc3)CC2)C1 [Navitoclax] (partner 0.5 µM)
Kind of assay: relative viability (nuclei count vs DMSO), 5 days (fraction); higher = more cells survive. In outline: (§1)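 Lung cancer cell lines in 1536-well plates were dosed by pin tool the day after seeding, either with one drug alone or with a fixed anchor-drug dose plus five library-drug doses (not always all listed) in √10 steps. After 5 days, cells were fixed and their nuclei stained in one step (final 0.05% Triton X-100, 1% formaldehyde, 1 ug/ml Hoechst), then counted on 4× images. Relative viability is the nuclei count in treated wells divided by that in vehicle wells. Values are medians of duplicate plates.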

Compound in assay [2]: O=C(/C=C/c1cccnc1)NCCCCC1CCN(C(=O)c2ccccc2)CC1 [Daporinad] + COc1cc2c(Oc3ccc(NC(=O)C4(C(=O)Nc5ccc(F)cc5)CC4)cc3F)ccnc2cc1OCCCN1CCOCC1 [Foretinib] (partner 0.25 µM)
The assay is described as above. In outline:
as §1

Turning to UMC-11, the relative viability in assay [1] (first compound 0.08 µM) came to 0.357; in assay [1] (first compound 0.253 µM), 0.321; in assay [1] (first compound 0.8 µM) it was 0.295; in assay [1] (first compound 2.53 µM), 0.288; in assay [1] (first compound 8 µM), 0.191; in assay [2] (first compound 0.0005 µM), 1.11. Moreover, the relative viability was determined as 1.05 in assay [2] (first compound 0.001581 µM), 1.34 in assay [2] (first compound 0.005 µM) and 1.22 in assay [2] (first compound 0.01581 µM).
